Experiments:
[1] = molecular target: standard panel of 30 kinases; assay: Kinase selectivity panel (SelectScreen Z'-LYTE), number of kinases inhibited; type: biochemical, human; settings: count out of 30 kinases
From the text: Prior art document WO 2012/010704, which is completely silent about the pharmacokinetic profile of its compounds, discloses compounds with similar substituents in the 2-position, e.g. compounds I-166, I-167 and I-175, which share the previously undefined, desirable pharmacokinetic profile with compounds (I) according to the invention.
(§1) In order to compare the kinase selectivity of compounds (I) according to the invention with known prior art compounds the commercially provided SelectScreen® Kinase Profiling Service (Z′-LYTE®) was used (Life Technologies GmbH, Darmstadt, Germany) to investigate the ability of the compounds to inhibit a number of different, representatively selected human kinases. Further details regarding this service are available on the Life Technologies website at
(§2) The Z′-LYTE® biochemical assay employs a fluorescence-based, coupled-enzyme format and is based on the differential sensitivity of phosphorylated and non-phosphorylated peptides to proteolytic cleavage. The peptide substrate is labeled with two fluorophores—one at each end—that make up a FRET pair.
(§3) In the primary reaction, the kinase transfers the gamma-phosphate of ATP to a single tyrosine, serine or threonine residue in a synthetic FRET-peptide. In the secondary reaction, a site-specific protease recognizes and cleaves non-phosphorylated FRET-peptides. Phosphorylation of FRET-peptides suppresses cleavage by the Development Reagent. Cleavage disrupts FRET between the donor (i.e., coumarin) and acceptor (i.e., fluorescein) fluorophores on the FRET-peptide, whereas uncleaved, phosphorylated FRET-peptides maintain FRET. A ratiometric method, which calculates the ratio (the Emission Ratio) of donor emission to acceptor emission after excitation of the donor fluorophore at 400 nm, is used to quantitate reaction progress, as shown in the equation below.
(§4) The Test Compounds are screened at 1 μM.

STK3 (MST2) = molecular target: T1, STK3 (MST2) (Homo sapiens, UniProt Q13188); assay: Z'-LYTE kinase selectivity assay STK3; type: biochemical
T1 construct: purchased Life Technologies PV 4805
T1 sequence (Q13188 1-491): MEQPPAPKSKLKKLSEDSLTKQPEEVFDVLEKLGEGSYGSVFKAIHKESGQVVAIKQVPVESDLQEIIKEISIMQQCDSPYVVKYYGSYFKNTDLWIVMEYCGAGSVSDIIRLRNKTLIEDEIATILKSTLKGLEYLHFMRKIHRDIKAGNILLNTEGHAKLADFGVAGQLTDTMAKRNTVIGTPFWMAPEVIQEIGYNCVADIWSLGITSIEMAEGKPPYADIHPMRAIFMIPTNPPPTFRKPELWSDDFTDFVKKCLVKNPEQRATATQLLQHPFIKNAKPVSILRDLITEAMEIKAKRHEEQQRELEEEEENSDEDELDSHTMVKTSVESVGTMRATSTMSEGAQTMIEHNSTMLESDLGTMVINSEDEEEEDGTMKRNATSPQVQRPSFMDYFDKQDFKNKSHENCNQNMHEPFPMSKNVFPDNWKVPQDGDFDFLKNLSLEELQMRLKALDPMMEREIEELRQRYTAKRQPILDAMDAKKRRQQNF
From the text: as §1, §2, §3, §4
The 2×STK3 (MST2) (# PV 4805)/Ser/Thr 07 (Z′-LYTE® Kinase Assay Kit—Ser/Thr 7 Peptide, # PV 3180) mixture is prepared in 50 mM HEPES pH 6.5, 0.01% BRIJ-35, 10 mM MgCl2, 1 mM EGTA, 0.02% NaN3. The final 10 μL Kinase Reaction consists of 6.25-38.7 ng STK3 (MST2) and 2 μM Ser/Thr 07 in 50 mM HEPES pH 7.0, 0.01% BRIJ-35, 10 mM MgCl2, 1 mM EGTA, 0.01% NaN3. After the 1 hour Kinase Reaction incubation, 5 μL of a 1:65000 dilution of Development Reagent A is added.

ACVR1B (ALK4) = molecular target: T2, ACVR1B (ALK4) (Homo sapiens, UniProt P36896); assay: Z'-LYTE kinase selectivity assay ACVR1B; type: biochemical
T2 construct: purchased Life Technologies PV4312
T2 sequence (P36896 24-505): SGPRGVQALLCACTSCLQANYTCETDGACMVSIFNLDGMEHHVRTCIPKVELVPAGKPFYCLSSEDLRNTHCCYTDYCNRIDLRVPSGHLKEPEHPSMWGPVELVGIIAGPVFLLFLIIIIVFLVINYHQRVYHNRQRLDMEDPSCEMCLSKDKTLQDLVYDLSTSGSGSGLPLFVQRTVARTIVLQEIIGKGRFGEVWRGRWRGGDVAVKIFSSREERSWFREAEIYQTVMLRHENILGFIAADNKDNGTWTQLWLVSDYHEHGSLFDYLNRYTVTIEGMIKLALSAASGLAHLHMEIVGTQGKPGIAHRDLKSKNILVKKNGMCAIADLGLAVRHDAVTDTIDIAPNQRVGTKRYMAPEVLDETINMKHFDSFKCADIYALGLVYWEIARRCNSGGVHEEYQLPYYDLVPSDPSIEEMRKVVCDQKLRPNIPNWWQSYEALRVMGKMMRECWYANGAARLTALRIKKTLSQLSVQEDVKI
From the text: as §1, §2, §3, §4
The 2×ACVR1B (ALK4) (# PV4312)/Ser/Thr 16 (Z′-LYTE® Kinase Assay Kit—Ser/Thr 16 Peptide, # PV 3802) mixture is prepared in 50 mM HEPES pH 7.5, 0.01% BRIJ-35, 10 mM MnCl2, 1 mM EGTA, 2 mM DTT, 0.02% NaN3. The final 10 μL Kinase Reaction consists of 9.15-60 ng ACVR1B (ALK4) and 2 μM Ser/Thr 16 in 50 mM HEPES pH 7.5, 0.01% BRIJ-35, 5 mM MgCl2, 5 mM MnCl2, 1 mM EGTA, 1 mM DTT, 0.01% NaN3. After the 1 hour Kinase Reaction incubation, 5 μL of a 1:16 dilution of Development Reagent B is added.

CSNK2A1 (CK2 alpha 1) = molecular target: T3, CSNK2A1 (CK2 alpha 1) (Homo sapiens, UniProt P68400); assay: Z'-LYTE kinase selectivity assay CSNK2A1; type: biochemical
T3 construct: purchased Life Technologies PV 3248
T3 sequence (P68400 whole entry): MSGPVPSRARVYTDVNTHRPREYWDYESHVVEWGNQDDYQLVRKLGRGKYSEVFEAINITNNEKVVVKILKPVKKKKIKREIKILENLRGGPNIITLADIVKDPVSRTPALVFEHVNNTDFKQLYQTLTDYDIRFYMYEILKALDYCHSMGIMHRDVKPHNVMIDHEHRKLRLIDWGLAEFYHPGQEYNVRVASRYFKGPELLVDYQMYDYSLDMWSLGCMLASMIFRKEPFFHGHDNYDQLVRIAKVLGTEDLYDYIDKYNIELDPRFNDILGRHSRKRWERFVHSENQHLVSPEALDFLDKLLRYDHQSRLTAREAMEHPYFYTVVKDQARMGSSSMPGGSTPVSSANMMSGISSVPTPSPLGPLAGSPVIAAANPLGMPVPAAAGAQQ
From the text: as §1, §2, §3, §4
The 2×CSNK2A1 (CK2 alpha 1) (# PV 3248)/Ser/Thr 11 (Z′-LYTE® Kinase Assay Kit—Ser/Thr 11 Peptide, # PV 3670) mixture is prepared in 50 mM HEPES pH 7.5, 0.01% BRIJ-35, 10 mM MgCl2, 1 mM EGTA. The final 10 μL Kinase Reaction consists of 0.68-25.7 ng CSNK2A1 (CK2 alpha 1) and 2 μM Ser/Thr 11 in 50 mM HEPES pH 7.5, 0.01% BRIJ-35, 10 mM MgCl2, 1 mM EGTA. After the 1 hour Kinase Reaction incubation, 5 μL of a 1:16 dilution of Development Reagent B is added.

Row | # kinases inhibited >50% @ 1 μM [1] | inhibition at 1 µM (STK3 (MST2)) | inhibition at 1 µM (ACVR1B (ALK4)) | inhibition at 1 µM (CSNK2A1 (CK2 alpha 1)) | Compound
1 | 6/30 | -15% | 7% | 1% | C[C@@H]1Cc2nn(C)c(-c3ccccc3)c2-c2nc(Nc3ccn(CCN4CCN(CC5CCCO5)CC4)n3)ncc21 (stereo partly shown) [Compound I-9]
2 | 6/30 | -1% | 0% | 3% | C[C@@H]1Cc2nn(C)c(-c3ccccc3)c2-c2nc(Nc3ccn(CCN4CCN(CC(C)(C)O)CC4)n3)ncc21 [Compound I-3]
3 | 4/30 | -2% | -11% | 2% | COCCN1CCN(CCn2ccc(Nc3ncc4c(n3)-c3c(nn(C)c3-c3ccccc3)C[C@H]4C)n2)CC1 [Compound I-11]
4 | 3/30 | -1% | -4% | 7% | C[C@@H]1Cc2nn(C)c(-c3ccccc3)c2-c2nc(Nc3ccn(CCN4CCN(CC(=O)OC5CCOCC5)CC4)n3)ncc21 [Compound I-8]
5 | 6/30 | 1% | -10% | 4% | C[C@@H]1Cc2nn(C)c(-c3ccccc3)c2-c2nc(Nc3ccn(CCN4CCN(C)CC4)n3)ncc21 [Compound I-1]
6 | 6/30 | 15% | 0% | 8% | CC(O)CN1CCN(CCn2ccc(Nc3ncc4c(n3)-c3c(nn(C)c3-c3ccccc3)C[C@H]4C)n2)CC1 (stereo partly shown) [Compound I-7]
7 | 7/30 | 5% | 0% | 10% | C[C@@H]1Cc2nn(C)c(-c3ccccc3)c2-c2nc(Nc3ccn(CCN4CCOCC4)n3)ncc21 [Compound I-2]
